Data on 29 molecules can be found in patent US20090105283A1, “3-HYDROQUINAZOLIN-4-ONE DERIVATIVES FOR USE AS STEAROYL CoA DESATURASE INHIBITORS” (priority 2007, published 2009).

The assay addresses T1, stearoyl-CoA desaturase (SCD) (Rattus norvegicus, UniProt P07308).
T1 construct: The microsomes were quickly thawed and added to assay buffer so that a concentration of 0.4 mg/ml was achieved; from tissue
T1 sequence (P07308 1-358): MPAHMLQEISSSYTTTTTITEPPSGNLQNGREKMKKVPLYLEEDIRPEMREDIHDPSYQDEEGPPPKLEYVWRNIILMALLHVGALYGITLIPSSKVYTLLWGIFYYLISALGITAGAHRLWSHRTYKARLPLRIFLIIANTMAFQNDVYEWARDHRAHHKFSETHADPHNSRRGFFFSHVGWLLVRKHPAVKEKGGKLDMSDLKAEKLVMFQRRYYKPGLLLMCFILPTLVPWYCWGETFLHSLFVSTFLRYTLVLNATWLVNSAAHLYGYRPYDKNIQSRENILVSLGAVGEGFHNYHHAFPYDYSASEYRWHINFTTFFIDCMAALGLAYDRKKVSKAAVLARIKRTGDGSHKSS
The assay is described as follows: SCD assay with rat liver microsomes ([3H]stearoyl CoA, adapted from Talamo and Bloch). It is filed as biochemical. The conditions noted are these: Table 1; rat liver microsomes 0.2 mg/ml assay final, [3H]stearoyl CoA substrate, 30 min preincubation, 45 min reaction, room temperature. From the text: Male Spraque Dawley Rats were placed on regimented fasting protocol for one week to stimulate SCD enzymatic activity. 48-hour periods were alternated between feeding and fasting to induce and down-regulate SCD activity with SCD activity being induced via carbohydrate rich diet prior to liver perfusion and collection.
The rats were anesthetized with Isoflurane inhalation anesthetic, the liver perfused with cold phosphate buffered saline (PBS), weighed, and chilled in cold homogenization buffer (250 mM sucrose, 10 mM Tris, 1 mM EDTA, pH 7.6.
The livers were finely minced and placed in homogenization tube. 40 mL of homogenization buffer was added to the homogenization tube and the liver homogenized and centrifuged in a pre-chilled […] for 10 min at 4° C.
Following centrifugation, the supernatant was collected and the pellet removed and discarded. The supernatant was centrifuge at 10,000 G for 35 minutes. Following centrifugation, the supernatant was collect and the pellet discarded. The supernatant was then centrifuged in a pre-chilled 45-Ti rotor at 130,000 G (41,000 RPM) for 90 minutes at 4° C.
The supernatant was then aspirated off and the collected microsomal pellet washed in 25 mL of Glycerol PBS (1×PBS 7.4, 20% Glycerol) and resuspended in 4-5 volumes of Glycerol PBS.
The protein concentration of the microsomal preparation was determined by BCA assay (Pierce) and the microsomes were aliquoted and stored at −80° C.
Biobeads were ground to a smaller size in a mortar and pestle and resuspended in 3.6% TCA. The beads were then filtered through […] mesh.
SCD was determined in the desaturase assay buffer. This assay buffer contained 0.1 M Tris buffer, pH 7.2, 2 mM NADH, 4.8 mM ATP, 0.5 mM CoA, 4.8 mM MgCl2, and 0.1% BSA.
1 μl of each compound of Formula I was added to an assay plate by a low volume (0.5-10 μL) multichannel pipette. A DMSO control was also prepared. The microsomes were quickly thawed and added to assay buffer so that a concentration of 0.4 mg/ml was achieved (0.2 mg/ml assay final). 50 μl of the microsome suspension in assay buffer was then added into each well in the compound assay plate, the plate was covered, and the microsomes preincubated with the compounds for 30 minutes on the orbital shaker, 50-75 rpm, at room temperature.
The reaction mixtures were then incubated for 45 minutes on the orbital shaker at 50-75 rpm at room temperature.
The reaction was terminated by the addition of 10 μl of 21% trichloroacetic acid (TCA) to the reaction mixture followed incubation on the orbital shaker for 30 minutes at 50-75 rpm at room temperature followed by centrifugation for 5 minutes at 3700 rpm.
50 μl of a 6% Bio-Bead suspension in H2O was added to the reaction mixture and the assay plate was sealed. The Bio-Bead mixture was incubated on the orbital shaker for 1 hour, 100-150 rpm at room temperature, and then the mixture was centrifuged at 2000 g for 5 minutes to pellet the Bio-Beads.
25 μl of the supernatant was harvested from each well and transferred to a detection plate. 100 μl of OptiPhase SuperMix scinitillation cocktail (containing sufficient NaOH to neutralize the TCA) was added and the solutions mixed by vigorous shaking (300-400 rpm) for 5 minutes at room temperature.

For orientation: IC50 means the midpoint of a concentration-inhibition curve. A lower IC50 goes with higher potency. For the molecule `COc1ccc(Cn2cnc3ccc(NC(=O)COC(C)=O)cc3c2=O)cc1` [C, (N-{3-[(4-methoxyphenyl)methyl]-4-oxo-3-hydroquinazolin-6-yl}carbamoyl)methyl acetate], the IC50 came out at 3500 nM.

As to `COc1ccc(Cn2cnc3ccc(NC(=O)CO)cc3c2=O)cc1` [CI, 2-hydroxy-N-{3-[(4-methoxyphenyl)methyl]-4-oxo(3-hydroquinazolin-6-yl)}acetamide], the midpoint of inhibition, the IC50, lay at 8220 nM.

`CC(=O)OCC(=O)Nc1ccc2c(=O)n(Cc3ccc(F)c(F)c3)cnc2c1` [CII, (N-{3-[(3,4-difluorophenyl)methyl]-4-oxo-3-hydroquinazolin-7-yl}carbamoyl)methyl acetate] had an IC50 of 7640 nM.

As to `O=C(CO)Nc1ccc2c(=O)n(Cc3ccc(F)c(F)c3)cnc2c1` [CIII, N-{3-[(3,4-difluorophenyl)methyl]-4-oxo(3-hydroquinazolin-7-yl)}-2-hydroxyacetamide], the IC50 worked out at 4390 nM.

As to `O=C(Nc1ccc2ncn(Cc3ccc(Cl)c(Cl)c3)c(=O)c2c1)OCc1ccccc1` [I, N-{3-[(3,4-dichlorophenyl)methyl]-4-oxo(3-hydroquinazolin-6-yl)}(phenylmethoxy)carboxamide], half-maximal inhibition (IC50) required 160 nM.

`O=C(CCc1ccccc1)Nc1ccc2ncn(Cc3ccc(Cl)c(Cl)c3)c(=O)c2c1` [II, N-{3-[(3,4-dichlorophenyl)methyl]-4-oxo(3-hydroquinazolin-6-yl)}-3-phenylpropanamide] registered an IC50 of 2410 nM. This IC50 lies about 15-fold higher than the previous one.

Molecule `CCCCCC(=O)Nc1ccc2ncn(Cc3ccc(Cl)c(Cl)c3)c(=O)c2c1` [III, N-{3-[(3,4-dichlorophenyl)methyl]-4-oxo-3-hydroquinazolin-6-yl}hexanamide] showed an IC50 of 5310 nM.

`CCCCCNC(=O)Nc1ccc2ncn(Cc3ccc(Cl)c(Cl)c3)c(=O)c2c1` [IV, N-{3-[(3,4-dichlorophenyl)methyl]-4-oxo(3-hydroquinazolin-6-yl)}(pentylamino)carboxamide] gave a half-inhibitory concentration (IC50) of 3590 nM.

In turn, `CC(C)OC(=O)Nc1ccc2ncn(Cc3ccc(Cl)c(Cl)c3)c(=O)c2c1` [IX, N-{3-[(3,4-dichlorophenyl)methyl]-4-oxo(3-hydroquinazolin-6-yl)}(methylethoxy)carboxamide] had an IC50 of 14000 nM.

As for `COc1ccccc1OCC(=O)Nc1ccc2c(=O)n(Cc3ccc(Cl)c(Cl)c3)cnc2c1` [L, N-{3-[(3,4-dichlorophenyl)methyl]-4-oxo(3-hydroquinazolin-7-yl)}-2-(2-methoxyphenoxy)acetamide], half-maximal inhibition (IC50) was put at 1440 nM.

For the molecule `O=C(COc1cccnc1)Nc1ccc2c(=O)n(Cc3ccc(Cl)c(Cl)c3)cnc2c1` [LI, N-{3-[(3,4-dichlorophenyl)methyl]-4-oxo(3-hydroquinazolin-7-yl)}-2-(3-pyridyloxy)acetamide], half-maximal inhibition (IC50) was put at 1450 nM. The IC50 values of the last two molecules are within 1.5-fold of each other.

For `O=C(Nc1ccc2c(=O)n(Cc3ccc(Cl)c(Cl)c3)cnc2c1)OCc1ccccc1` [LII, N-{3-[(3,4-dichlorophenyl)methyl]-4-oxo(3-hydroquinazolin-7-yl)}(phenylmethoxy)carboxamide], the IC50 was 50 nM.

`O=C(COc1ccccc1)Nc1ccc2c(=O)n(Cc3ccc(Cl)c(Cl)c3)cnc2c1` [LIII, N-{3-[(3,4-dichlorophenyl)methyl]-4-oxo(3-hydroquinazolin-7-yl)}-2-phenoxyacetamide] came in with an IC50 of 1690 nM.

In turn, `O=C(CSc1ccncc1)Nc1ccc2ncn(Cc3ccc(Cl)c(Cl)c3)c(=O)c2c1` [LIV, N-{3-[(3,4-dichlorophenyl)methyl]-4-oxo(3-hydroquinazolin-6-yl)}-2-(4-pyridylthio)acetamide] returned an IC50 of 2560 nM. This IC50 is about 1.5-fold higher than that of the molecule before.

For the molecule `O=C(Nc1ccc2c(=O)n(Cc3cccc(Cl)c3)cnc2c1)OCc1cccnc1` [LIX, N-{3-[(3-chlorophenyl)methyl]-4-oxo(3-hydroquinazolin-7-yl)}(3-pyridylmethoxy)carboxamide], inhibition was half-maximal at 280 nM (IC50).

As to `O=C(CSc1ncccn1)Nc1ccc2ncn(Cc3ccc(Cl)c(Cl)c3)c(=O)c2c1` [LV, N-{3-[(3,4-dichlorophenyl)methyl]-4-oxo(3-hydroquinazolin-6-yl)}-2-pyrimidin-2-ylthioacetamide], the IC50 worked out at 5420 nM.

The molecule `O=C(CSc1ccc(Cl)cc1)Nc1ccc2ncn(Cc3ccc(Cl)c(Cl)c3)c(=O)c2c1` [LVI, N-{3-[(3,4-dichlorophenyl)methyl]-4-oxo(3-hydroquinazolin-6-yl)}-2-(4-chlorophenylthio)acetamide] displayed a half-maximal inhibitory concentration (IC50) of 2810 nM. Against the preceding molecule, the IC50 is about 1.9-fold lower.

In turn, `O=C(Nc1ccc2ncn(Cc3ccc(Cl)cc3)c(=O)c2c1)c1ccc(Cn2ccnc2)o1` [LVII, N-{3-[(4-chlorophenyl)methyl]-4-oxo(3-hydroquinazolin-6-yl)}[5-(imidazolylmethyl)(2-furyl)]carboxamide] registered an IC50 of 12000 nM.

`O=C(Nc1ccc2c(=O)n(Cc3cccc(Cl)c3)cnc2c1)OCc1ccccc1` [LVIII, N-{3-[(3-chlorophenyl)methyl]-4-oxo(3-hydroquinazolin-7-yl)}(phenylmethoxy)carboxamide]: 250 nM corresponded to half-maximal inhibition (IC50).

`O=C(CSCc1ccccc1)Nc1ccc2ncn(Cc3ccc(Cl)c(Cl)c3)c(=O)c2c1` [LX, N-{3-[(3,4-dichlorophenyl)methyl]-4-oxo(3-hydroquinazolin-6-yl)}-2-(phenylmethylthio)acetamide] yielded an IC50 of 6600 nM. Against the preceding molecule, the IC50 is about 26-fold higher.

The molecule `COc1ccccc1COC(=O)Nc1ccc2c(=O)n(Cc3ccc(Cl)c(Cl)c3)cnc2c1` [LXI, N-{3-[(3,4-dichlorophenyl)methyl]-4-oxo(3-hydroquinazolin-7-yl)}[(2-methoxyphenyl)methoxy]carboxamide] showed an IC50 of 700 nM.

For `O=C(CO)Nc1ccc2ncn(Cc3ccc(Cl)c(Cl)c3)c(=O)c2c1` [LXII, N-{3-[(3,4-dichlorophenyl)methyl]-4-oxo(3-hydroquinazolin-6-yl)}-2-hydroxyacetamide], inhibition was half-maximal at 230 nM (IC50).

In turn, `O=C(Nc1ccc2ncn(Cc3ccc(Cl)c(Cl)c3)c(=O)c2c1)OCc1ccco1` [LXIII, N-{3-[(3,4-dichlorophenyl)methyl]-4-oxo(3-hydroquinazolin-6-yl)}(2-furylmethoxy)carboxamide] had an IC50 of 440 nM.

As to `CC(=O)OCC(=O)Nc1ccc2c(=O)n(Cc3ccc(Cl)c(Cl)c3)cnc2c1` [LXIV, (N-{3-[(3,4-dichlorophenyl)methyl]-4-oxo-3-hydroquinazolin-7-yl}carbamoyl)methyl acetate], the IC50 is 180 nM. This IC50 is about 2.4-fold lower than that of the molecule before.

The molecule `O=C(Nc1ccc2c(=O)n(Cc3cccc(F)c3)cnc2c1)OCc1ccccc1` [LXIX, N-{3-[(3-fluorophenyl)methyl]-4-oxo(3-hydroquinazolin-7-yl)}(phenylmethoxy)carboxamide] returned an IC50 of 840 nM.

Regarding `CC(=O)OCC(=O)Nc1ccc2c(=O)n(Cc3cccc(Cl)c3)cnc2c1` [LXV, (N-{3-[(3-chlorophenyl)methyl]-4-oxo-3-hydroquinazolin-7-yl}carbamoyl)methyl acetate], the midpoint of inhibition, the IC50, lay at 27100 nM.

The molecule `CC(=O)OCC(=O)Nc1ccc2c(=O)n(Cc3ccc(Cl)cc3)cnc2c1` [LXVI, (N-{3-[(4-chlorophenyl)methyl]-4-oxo-3-hydroquinazolin-7-yl}carbamoyl)methyl acetate] had an IC50 of 16400 nM.

Take `COCCOC(=O)Nc1ccc2c(=O)n(Cc3ccc(Cl)c(Cl)c3)cnc2c1` [LXVII, N-{3-[(3,4-dichlorophenyl)methyl]-4-oxo(3-hydroquinazolin-7-yl)}(2-methoxyethoxy)carboxamide]: the half-inhibitory concentration (IC50) was 880 nM.

As to `O=C(CO)Nc1ccc2c(=O)n(Cc3cccc(Cl)c3)cnc2c1` [LXVIII, N-{3-[(3-chlorophenyl)methyl]-4-oxo(3-hydroquinazolin-7-yl)}-2-hydroxyacetamide], half-maximal inhibition (IC50) required 2690 nM.
